Test results from US9187458B2, “Cyanoquinoline derivatives” (Tianjin Hemay Bio-Tech Co., LTD., priority 2010, dated 2015).

Tested on: MDA-MB-453 cells
Test: MDA-MB-453 Cell Growth Inhibition Test (SRB Assay)
Type: cell-based
Conditions: Homo sapiens, 72 h incubation
Method: MDA-MB-453 Cell Growth Inhibition Test (SRB Assay)
Cell strains: MDA-MB-453 (human breast cancer cell strains);
SRB: 0.4% (w/v) working solution was formulated with 1% glacial acetic acid, reserved at 4° C.; antitumor compounds; DMSO
Culture medium: 90% L15+10% FBS;
1. A plate (10 cm) of cells in logarithmic growth phase normally cultured was collected;
2. The culture solution was sucked out. The plate was washed with 5 mL of PBS 1-2 times;
3. 1.5 mL of 0.25% pancreatin was added to the plate to infiltrate the cells;
4. The pancreatin was sucked out. The culture plate was placed in an incubator. Digestion was carried out for about 3 min at 37° C.;
5. 4 mL of complete culture solution was added to the culture plate to stop the digestion. The cells were carefully scoured with micropipette (1 ml) to give a uniform single cell suspension. The suspension was implanted into a 96-well cell culture plate by 7000 cells/100 μl per well. The culture plate was incubated overnight under 5% CO2 at 37° C. In day 2, 100 μl of culture solution comprising a compound was added in each well, and further incubated for 72 h under 5% CO2 at 37° C.;
6. The culture solution was sucked out. 100 uL of TCA fixed cells which were diluted to 10% were added to each well. The plate was kept in a refrigerator for 1 h at 4° C.
7. TCA stationary liquid was sucked out. […]
13. OD values were determined at […]. […]

Molecule `C#Cc1cccc(Nc2c(C#N)cnc3cc(OC4CCOC4)c(NC(=O)/C=C/CN(C)C)cc23)c1` (stereo not shown) [Example 5, (E)-N-(3-CYANO-4-(3-ETHYNYLPHENYLAMINO)-7-(TETRAHYDROFURAN-3-YL-OXY)QUINOLIN-6-YL)-4-(DIMETHYLAMINO)-BUT-2-ENAMIDE] has an IC50 of 505 nM.
